Results: paper PMC2788672 (Journal of medicinal chemistry, 2009)
Values after ≈ are worked out from the molar mass of the structure shown. “Also recorded” adds a separate entry of the source. Read-outs that look alike come from different tables or passages of the source.

Key:
P. carinii [1] = assay: In vitro anti-P. carinii ATP detection assay; assay type: cell-based, Pneumocystis carinii; conditions: for IC50: Pneumocystis carinii
[2] = tested on: sporogonic development of Plasmodium berghei ANKA in Anopheles stephensi; assay: In vivo transmission-blocking activity; conditions: single i.p. dose to mice
[3] = tested on: chloroquine-resistant P. falciparum strain W2; conditions: cited from earlier work; for IC50: read-out: Activity against blood stage forms IC50, ref [28]
P. carinii [4] = conditions: 72 h, ref [28], cited from earlier work; for IC50: read-out: Anti-P. carinii activity IC50
[5] = tested on: A549 human adenocarcinoma epithelial lung cells; assay: Cytotoxicity, viability of A549 cells; assay type: cell-based
[6] = tested on: chloroquine-resistant P. falciparum strain W2; assay: In vitro blood-schizontocidal activity assay; assay type: cell-based, Plasmodium falciparum; conditions: P. falciparum W2, 48 h incubation
[7] = 24 h, read-out: Anti-P. carinii activity IC50, 24 h
[8] = 48 h, read-out: Anti-P. carinii activity IC50, 48 h
[9] = 72 h, read-out: Anti-P. carinii activity IC50, 72 h

Compound	Mean no. of oocysts per mosquito±SEM ([2]; dose 10 µmol/kg)	Mean no. of oocysts per mosquito±SEM ([2]; dose 50 µmol/kg)	IC50 (P. carinii [1]; [7])	IC50 (P. carinii [1]; [8])	IC50 (P. carinii [1]; [9])	other results
COc1cc(NC(C)CCCN)c2ncccc2c1 (stereo not shown) [Compound 1, primaquine, reference compound]	3.5 ±1.2	0.2 ±0.2	–	–	–	IC50 (P. carinii [1]; 24 h, read-out: Anti-P. carinii activity IC50): 4.7 µg/mL (≈ 18.1 µM); IC50 (P. carinii [1]; 48 h, read-out: Anti-P. carinii activity IC50): 2.2 µg/mL (≈ 8.48 µM); IC50 (P. carinii [1]; 72 h, read-out: Anti-P. carinii activity IC50): 0.9 µg/mL (≈ 3.47 µM)
COc1cc(NC(C)CCCN2C(=O)CNC2(C)C)c2ncccc2c1 (stereo not shown) [Compound 4a]	–	–	–	–	–	IC50 [3]: 9.1 µM; Anti-P. carinii activity IC50 (P. carinii [4]): 8.3 µg/mL; IC50 (P. carinii [4]): 23 µM
COc1cc(NC(C)CCCN2C(=O)[C@@H](C)NC2(C)C)c2ncccc2c1 (stereo partly shown) [Compound 4b]	–	–	–	–	–	IC50 [3]: > 50 µM; Activity against blood stage forms IC50 ([3]; ref [28]): complete loss of activity; Anti-P. carinii activity IC50 (P. carinii [4]): 83.7 µg/mL; IC50 (P. carinii [4]): 226 µM
COc1cc(NC(C)CCCN2C(=O)CN(C(=O)CN)C2(C)C)c2ncccc2c1 (stereo not shown) [Compound 5a]	–	–	18.1 µg/mL (≈ 43.8 µM)	15.5 µg/mL (≈ 37.5 µM)	11.6 µg/mL (≈ 28.1 µM)	Cytotoxicity (A549 cells) IC50 at 72 h [5]: no toxicity
COc1cc(NC(C)CCCN2C(=O)CN(C(=O)[C@@H](C)N)C2(C)C)c2ncccc2c1 (stereo partly shown) [Compound 5b]	–	1.3 ±0.3	16.9 µg/mL (≈ 39.5 µM)	8 µg/mL (≈ 18.7 µM)	3.6 µg/mL (≈ 8.42 µM)	–
COc1cc(NC(C)CCCN2C(=O)CN(C(=O)[C@H](N)C(C)C)C2(C)C)c2ncccc2c1 (stereo partly shown) [Compound 5c]	–	–	24.7 µg/mL (≈ 54.2 µM)	9.2 µg/mL (≈ 20.2 µM)	6.2 µg/mL (≈ 13.6 µM)	–
COc1cc(NC(C)CCCN2C(=O)CN(C(=O)[C@H](N)CC(C)C)C2(C)C)c2ncccc2c1 (stereo partly shown) [Compound 5d]	–	–	14.6 µg/mL (≈ 31.1 µM)	8.4 µg/mL (≈ 17.9 µM)	5.1 µg/mL (≈ 10.9 µM)	–
CC[C@H](C)[C@@H](N)C(=O)N1CC(=O)N(CCCC(C)Nc2cc(OC)cc3cccnc23)C1(C)C (stereo partly shown) [Compound 5e, 1-isoleucyl-3-(4-(6-methoxyquinolin-8-ylamino)pentyl)-2,2-dimethylimidazolidin-4-one]	4.9 ±0.6	1.5 ±0.5	12.9 µg/mL (≈ 27.5 µM)	7.5 µg/mL (≈ 16 µM)	4.6 µg/mL (≈ 9.79 µM)	–
COc1cc(NC(C)CCCN2C(=O)CN(C(=O)[C@H](N)CCSC)C2(C)C)c2ncccc2c1 (stereo partly shown) [Compound 5f]	1.2 ±0.4	3.8 ±1.4	11.6 µg/mL (≈ 23.8 µM)	6.4 µg/mL (≈ 13.1 µM)	3.4 µg/mL (≈ 6.97 µM)	–
COc1cc(NC(C)CCCN2C(=O)CN(C(=O)[C@H](N)Cc3ccccc3)C2(C)C)c2ncccc2c1 (stereo partly shown) [Compound 5g]	3.7 ±1.2	2.2 ±0.8	12.1 µg/mL (≈ 24 µM)	9.3 µg/mL (≈ 18.5 µM)	5.1 µg/mL (≈ 10.1 µM)	–
COc1cc(NC(C)CCCN2C(=O)[C@@H](C)N(C(=O)CN)C2(C)C)c2ncccc2c1 (stereo partly shown) [Compound 5h]	3.3 ±1.1	1.8 ±0.5	–	32.2 µg/mL (≈ 75.3 µM)	22.3 µg/mL (≈ 52.2 µM)	Anti-P. carinii activity (activity scale) (P. carinii [1]; 24 h): Inactive; Cytotoxicity (A549 cells) IC50 at 72 h [5]: no toxicity
COc1cc(NC(C)CCCN2C(=O)CN(C(C)=O)C2(C)C)c2ncccc2c1 (stereo not shown) [Compound 6]	–	–	–	40.5 µg/mL (≈ 102 µM)	14.6 µg/mL (≈ 36.6 µM)	Activity against blood stage forms IC50 [6]: complete loss of activity; also recorded: devoid of blood-schizontocidal activity; Anti-P. carinii activity (activity scale) (P. carinii [1]; 24 h): Inactive
COc1cc(N(C(C)=O)C(C)CCCN2C(=O)CN(C(C)=O)C2(C)C)c2ncccc2c1 (stereo not shown) [Compound 7]	–	–	–	–	–	Activity against blood stage forms IC50 [6]: devoid of blood-schizontocidal activity; Anti-P. carinii activity (activity scale) (P. carinii [1]; 24 h): Inactive; Anti-P. carinii activity (activity scale) (P. carinii [1]; 48 h): Inactive; Anti-P. carinii activity (activity scale) (P. carinii [1]; 72 h): Inactive
